Measurements: ChEMBL document CHEMBL1201862, “PubChem BioAssay data set” (2004)
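Test compounds were applied to cells in 96-well plates for 48 hours at 5 doses. GI50: concentration for 50% inhibition of growth.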 Activity calls are given as the source filed them. Rule as the data show it: active = GI50 up to about 1.1 µM and inactive = higher.

What was measured:
Experiment in all cases: NCI tumour cell line growth inhibition, 48 h
[1] = tested on: PC-3
[2] = tested on: SW-620
[3] = tested on: OVCAR-5
[4] = tested on: KM-20L2
[5] = tested on: NCI-H460
[6] = tested on: MDA-MB-231
[7] = tested on: RXF 393
[8] = tested on: IGROV-1
[9] = tested on: NCI-H522
[10] = tested on: CAKI-1
[11] = tested on: SNB-75
[12] = tested on: HCC 2998
[13] = tested on: UACC-62
[14] = tested on: SK-MEL-28
[15] = tested on: K562
[16] = tested on: SF-268
[17] = tested on: SK-OV-3
[18] = tested on: ACHN
[19] = tested on: LOX IMVI
[20] = tested on: NCI/ADR-RES

CC1(O)CC2(O)C=CC3=C(C(=O)c4cccc(O)c4C3=O)C2(O)C(=O)C1O (stereo not given)
GI50 [1]: 6 µM (inactive)
GI50 [2]: 0.75 µM (active)
GI50 [3]: 5.04 µM (inactive)
GI50 [4]: 1.16 µM (inactive)
GI50 [5]: 15.6 µM (inactive)
GI50 [6]: 3.31 µM (inactive)
GI50 [7]: 0.964 µM (active)
GI50 [8]: 4.6 µM (inactive)
GI50 [9]: 0.124 µM (active)
GI50 [10]: 0.91 µM (active)
GI50 [11]: 8.38 µM (inactive)
GI50 [12]: 4.09 µM (inactive)
GI50 [13]: 2.94 µM (inactive)
GI50 [14]: 1.69 µM (inactive)
GI50 [15]: 0.94 µM (active)
GI50 [16]: 5.46 µM (inactive)
GI50 [17]: 15.2 µM (inactive)
GI50 [18]: 1.63 µM (inactive)
GI50 [19]: 1.47 µM (inactive)
GI50 [20]: 7.83 µM (inactive)
